Assay results as given in the supplement of paper PMC11061612.

Columns and labels:
Test in all cases: combination Emax (second highest fraction inhibited in the dose matrix, 72 h); higher = more inhibition; extreme values may be limits of the assay
[1] = system: A673 (Ewing's Sarcoma)
Summary of the method: (§1)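 After 24 hours at 37°C and 5% CO2 in 1536-well plates, cells in DMEM/F12 or RPMI plus 10% FBS received two-drug dose matrices for 72 hours. Viability came from CellTiter-Glo 2.0 luminescence and was scaled as inhibition, anchored at 0 by vehicle wells and at 1 by blank wells. Combination Emax is taken as the second-highest inhibition in the matrix, and Bliss excess as the observed combination effect less EA + EB − EA·EB, with EA and EB the single-agent effects.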

[2] = system: ALL-PO (B-Lymphoblastic Leukemia)
Summary of the method: as §1

[3] = system: BPH-1 (Non-Cancerous)
Summary of the method: as §1

[4] = system: CAL-33 (Oral Cavity Carcinoma)
Summary of the method: as §1

[5] = system: EW-11 (Ewing's Sarcoma)
Summary of the method: as §1

[6] = system: FTC-133 (Thyroid Gland Carcinoma)
Summary of the method: as §1

[7] = system: HH (T-Cell Non-Hodgkin's Lymphoma)
Summary of the method: as §1

[8] = system: HeLa (Cervical Carcinoma)
Summary of the method: as §1

[9] = system: Hs-746T (Gastric Carcinoma)
Summary of the method: as §1

[10] = system: LCLC-97TM1 (Non-Small Cell Lung Carcinoma)
Summary of the method: as §1

[11] = system: NCI-H1568 (Lung Adenocarcinoma)
Summary of the method: as §1

[12] = system: NCI-H209 (Small Cell Lung Carcinoma)
Summary of the method: as §1

[13] = system: NCI-H524 (Small Cell Lung Carcinoma)
Summary of the method: as §1

[14] = system: NUGC-4 (Gastric Carcinoma)
Summary of the method: as §1

[15] = system: SAS (Oral Cavity Carcinoma)
Summary of the method: as §1

[16] = system: SNU-449 (Hepatocellular Carcinoma)
Summary of the method: as §1

[17] = system: SW1573 (Lung Adenocarcinoma)
Summary of the method: as §1

[18] = system: TGBC1TKB (Biliary Tract Carcinoma)
Summary of the method: as §1

[19] = system: WSU-NHL (B-Cell Non-Hodgkin's Lymphoma)
Summary of the method: as §1

[20] = system: YAPC (Pancreatic Carcinoma)
Summary of the method: as §1

SMILES | combination Emax [1] | combination Emax [2] | combination Emax [3] | combination Emax [4] | combination Emax [5] | combination Emax [6] | combination Emax [7] | combination Emax [8] | combination Emax [9] | combination Emax [10] | combination Emax [11] | combination Emax [12] | combination Emax [13] | combination Emax [14] | combination Emax [15] | combination Emax [16] | combination Emax [17] | combination Emax [18] | combination Emax [19] | combination Emax [20]
Cc1c2c(nn1C)CSCc1cc(n(C)n1)CSc1cc(c3ccccc3c1)OCCCc1c(C(=O)O)n(C)c3c-2c(Cl)ccc13 [AZD5991] + CCN(CCO)CCCOc1ccc2c(Nc3cc(CC(=O)Nc4cccc(F)c4)[nH]n3)ncnc2c1 [AZD2811] (first compound max 1 µM, 7x7, partner max 1 µM) | 0.946 | 1 | 0.873 | 0.911 | 0.872 | 0.761 | 0.728 | 0.763 | 0.257 | 0.722 | 0.306 | 0.967 | 1 | 0.22 | 0.268 | 0.282 | 0.321 | 0.192 | 0.92 | 0.238
Cc1c2c(nn1C)CSCc1cc(n(C)n1)CSc1cc(c3ccccc3c1)OCCCc1c(C(=O)O)n(C)c3c-2c(Cl)ccc13 [AZD5991] + CN(C)CCCOc1ccc(-c2ccc3ncc4c(c3c2)n(C2CCOCC2)c(=O)n4C)cn1 [AZD0156] (first compound max 1 µM, 7x7, partner max 1 µM) | 0.438 | 1 | 0.733 | 0.185 | 0.803 | 0.719 | 0.756 | 0.46 | 0.358 | 0.286 | 0.401 | 0.544 | 0.452 | 0.238 | 0.268 | 0.25 | 0.214 | 0.219 | 0.92 | 0.169
Cc1c2c(nn1C)CSCc1cc(n(C)n1)CSc1cc(c3ccccc3c1)OCCCc1c(C(=O)O)n(C)c3c-2c(Cl)ccc13 [AZD5991] + C[C@@H]1COCCN1C2=NC(=NC(=C2)C3(CC3)[S@](=N)(=O)C)C4=C5C=CNC5=NC=C4 [AZD6738] (first compound max 1 µM, 7x7, partner max 10 µM) | 0.823 | 1 | 0.521 | 0.901 | 0.932 | 0.923 | 0.759 | 0.856 | 0.551 | 0.894 | 0.502 | 0.997 | 0.854 | 0.561 | 0.849 | 0.198 | 0.368 | 0.403 | 0.994 | 0.327
Cc1c2c(nn1C)CSCc1cc(n(C)n1)CSc1cc(c3ccccc3c1)OCCCc1c(C(=O)O)n(C)c3c-2c(Cl)ccc13 [AZD5991] + C[C@@H](Nc1cc(F)cc(F)c1)c1cc(C(=O)N(C)C)cc2c(=O)cc(N3CCOCC3)oc12 [AZD8186] (first compound max 1 µM, 7x7, partner max 3 µM) | 0.557 | 1 | 0.461 | 0.28 | 0.906 | 0.667 | 0.87 | 0.614 | 0.487 | 0.221 | 0.225 | 0.384 | 0.436 | 0.374 | 0.321 | 0.216 | 0.288 | 0.377 | 0.987 | 0.182
Cc1c2c(nn1C)CSCc1cc(n(C)n1)CSc1cc(c3ccccc3c1)OCCCc1c(C(=O)O)n(C)c3c-2c(Cl)ccc13 [AZD5991] + Cc1cc2ncnn2cc1Nc1ncc2c(n1)n(C1CCOCC1)c(=O)n2C [AZD7648] (first compound max 1 µM, 7x7, partner max 10 µM) | 0.471 | 1 | 0.409 | 0.302 | 0.837 | 0.649 | 0.71 | 0.485 | 0.319 | 0.385 | 0.232 | 0.431 | 0.501 | 0.279 | 0.286 | 0.238 | 0.19 | 0.319 | 0.952 | 0.248
Cc1c2c(nn1C)CSCc1cc(n(C)n1)CSc1cc(c3ccccc3c1)OCCCc1c(C(=O)O)n(C)c3c-2c(Cl)ccc13 [AZD5991] + Cn1cnc2c(F)c(Nc3ccc(Br)cc3Cl)c(C(=O)NOCCO)cc21 [Selumetinib] (first compound max 1 µM, 7x7, partner max 3 µM) | 0.671 | 1 | 0.604 | 0.411 | 0.76 | 0.738 | 0.714 | 0.496 | 0.422 | 0.694 | 0.563 | 0.402 | 0.336 | 0.616 | 0.44 | 0.246 | 0.169 | 0.187 | 0.934 | 0.209
C[C@@H]1COCCN1c1cc(C2([S@](C)(=N)=O)CC2)nc(-c2ccnc3[nH]ccc23)n1 [AZD6738] + O=C(c1cc(Cc2n[nH]c(=O)c3ccccc23)ccc1F)N1CCN(C(=O)C2CC2)CC1 [Olaparib] (first compound max 10 µM, 7x7, partner max 10 µM) | 0.89 | 0.955 | 0.51 | 0.763 | 0.72 | 0.672 | 0.209 | 0.713 | 0.582 | 0.826 | 0.416 | 0.94 | 0.746 | 0.551 | 0.839 | 0.234 | 0.217 | 0.397 | 0.989 | 0.288
NC1(C(=O)N[C@@H](CCO)c2ccc(Cl)cc2)CCN(c2ncnc3[nH]ccc23)CC1 [Capivasertib] + CC(=O)c1c(C)c2cnc(Nc3ccc(N4CCNCC4)cn3)nc2n(C2CCCC2)c1=O [Palbociclib] (first compound max 10 µM, 7x7, partner max 10 µM) | 0.271 | 0.688 | 0.518 | 0.499 | 0.496 | 0.565 | 0.426 | 0.196 | 0.588 | 0.583 | 0.357 | 0.603 | 0.666 | 0.305 | 0.575 | 0.379 | 0.382 | 0.344 | 0.899 | 0.281
NC1(C(=O)N[C@@H](CCO)c2ccc(Cl)cc2)CCN(c2ncnc3[nH]ccc23)CC1 [Capivasertib] + CC(C)n1c(=O)n(C)c2cnc3cc(F)c(-c4ccc(OCCCN5CCCCC5)nc4)cc3c21 [AZD1390] (first compound max 10 µM, 7x7, partner max 0.3 µM) | 0.292 | 0.521 | 0.459 | 0.478 | 0.511 | 0.582 | 0.256 | 0.199 | 0.332 | 0.392 | 0.163 | 0.17 | 0.343 | 0.145 | 0.26 | 0.174 | 0.235 | 0.358 | 0.882 | 0.223
NC1(C(=O)N[C@@H](CCO)c2ccc(Cl)cc2)CCN(c2ncnc3[nH]ccc23)CC1 [Capivasertib] + CCN(CCO)CCCOc1ccc2c(Nc3cc(CC(=O)Nc4cccc(F)c4)[nH]n3)ncnc2c1 [AZD2811] (first compound max 10 µM, 7x7, partner max 1 µM) | 0.703 | 1 | 0.587 | 0.897 | 0.611 | 0.643 | 0.281 | 0.23 | 0.403 | 0.686 | 0.22 | 0.428 | 0.992 | 0.0827 | 0.299 | 0.187 | 0.374 | 0.298 | 0.966 | 0.233
NC1(C(=O)N[C@@H](CCO)c2ccc(Cl)cc2)CCN(c2ncnc3[nH]ccc23)CC1 [Capivasertib] + COc1nnc2ccc(N3CCC(c4ccc(OCCN5CCN(C)C(=O)[C@H]5C)cc4)CC3)nn12 [AZD5153] (first compound max 10 µM, 7x7, partner max 1 µM) | 0.434 | 0.9 | 0.691 | 0.749 | 0.948 | 0.73 | 0.439 | 0.423 | 0.599 | 0.805 | 0.305 | 0.539 | 0.667 | 0.542 | 0.801 | 0.224 | 0.409 | 0.39 | 1 | 0.309
NC1(C(=O)N[C@@H](CCO)c2ccc(Cl)cc2)CCN(c2ncnc3[nH]ccc23)CC1 [Capivasertib] + C[C@@H]1COCCN1C2=NC(=NC(=C2)C3(CC3)[S@](=N)(=O)C)C4=C5C=CNC5=NC=C4 [AZD6738] (first compound max 10 µM, 7x7, partner max 10 µM) | 0.804 | 0.99 | 0.574 | 0.918 | 0.753 | 0.802 | 0.349 | 0.518 | 0.582 | 0.873 | 0.664 | 0.9 | 0.712 | 0.469 | 0.829 | 0.262 | 0.461 | 0.559 | 1 | 0.334
NC1(C(=O)N[C@@H](CCO)c2ccc(Cl)cc2)CCN(c2ncnc3[nH]ccc23)CC1 [Capivasertib] + Cn1cnc2c(F)c(Nc3ccc(Br)cc3Cl)c(C(=O)NOCCO)cc21 [Selumetinib] (first compound max 10 µM, 7x7, partner max 10 µM) | 0.469 | 0.726 | 0.716 | 0.789 | 0.453 | 0.608 | 0.246 | 0.253 | 0.691 | 0.849 | 0.229 | 0.163 | 0.303 | 0.329 | 0.615 | 0.205 | 0.362 | 0.475 | 0.92 | 0.346
